Results published in the supplement of paper PMC13380429.

How the values were obtained:
[1] = system: A549-ACE2 infected with SARS-CoV-2; experiment: cell count relative to DMSO; higher = less toxic; settings: 24 h
A549-ACE2 [2] = experiment: drug-induced phospholipidosis relative to tamoxifen; higher = more phospholipidosis
U2OS [3] = experiment: drug sensitivity score (DSS) for viability; higher = more toxic; extreme values may be limits of the assay; settings: 72 h
HepG2 [4] = experiment: as above; settings: 72 h
Calu-3 [5] = experiment: as above; settings: 72 h
Caco-2 [6] = experiment: as above; settings: 72 h
Vero E6 [7] = experiment: as above; settings: 72 h
[8] = system: A549-ACE2 infected with SARS-CoV-2; experiment: morphology score (similarity to uninfected cells); higher = more like uninfected cells; settings: 24 h
[9] = system: A549-ACE2 infected with SARS-CoV-2; experiment: SARS-CoV-2 infection rate relative to DMSO; higher = more infection; settings: 24 h
U2OS [10] = experiment: relative viability EC50 (midpoint between 100% and the lowest measured viability); higher = less toxic; settings: 72 h
HepG2 [11] = experiment: as above; settings: 72 h
Calu-3 [12] = experiment: as above; settings: 72 h
Caco-2 [13] = experiment: as above; settings: 72 h
Vero E6 [14] = experiment: as above; settings: 72 h
A549-ACE2 [15] = experiment: phospholipidosis EC50; higher = less potent phospholipidosis inducer
U2OS [16] = experiment: cell viability relative to DMSO; higher = less toxic; settings: 72 h
HepG2 [17] = experiment: as above; settings: 72 h
Calu-3 [18] = experiment: as above; settings: 72 h
Caco-2 [19] = experiment: as above; settings: 72 h
Vero E6 [20] = experiment: as above; settings: 72 h

O=C(NCCN1CCC2(CC1)C(=O)NCN2c1cccc(F)c1)c1ccc(F)c(F)c1 [ML298]
Settings | SARS-CoV-2 infection rate [%] | cell count [%] | cell viability [%] | morphology score | phospholipidosis EC50 [µM]
A549-ACE2 [15], 24 h | – | – | – | – | 7.34
A549-ACE2 [15], 48 h | – | – | – | – | 9.19
A549-ACE2 [15], 72 h | – | – | – | – | 8.25
Caco-2 [19], 1 nM | – | – | 98 | – | –
Caco-2 [19], 10 nM | – | – | 99.7 | – | –
Caco-2 [19], 100 nM | – | – | 95.2 | – | –
Caco-2 [19], 1000 nM | – | – | 91.1 | – | –
Caco-2 [19], 10000 nM | – | – | 89.9 | – | –
Calu-3 [18], 1 nM | – | – | 96.7 | – | –
Calu-3 [18], 10 nM | – | – | 104 | – | –
Calu-3 [18], 100 nM | – | – | 101 | – | –
Calu-3 [18], 1000 nM | – | – | 93.9 | – | –
Calu-3 [18], 10000 nM | – | – | 89.1 | – | –
HepG2 [17], 1 nM | – | – | 97.3 | – | –
HepG2 [17], 10 nM | – | – | 103 | – | –
HepG2 [17], 100 nM | – | – | 101 | – | –
HepG2 [17], 1000 nM | – | – | 97.7 | – | –
HepG2 [17], 10000 nM | – | – | 89.1 | – | –
U2OS [16], 1 nM | – | – | 103 | – | –
U2OS [16], 10 nM | – | – | 102 | – | –
U2OS [16], 100 nM | – | – | 104 | – | –
U2OS [16], 1000 nM | – | – | 98.5 | – | –
U2OS [16], 10000 nM | – | – | 94.2 | – | –
Vero E6 [20], 1 nM | – | – | 101 | – | –
Vero E6 [20], 10 nM | – | – | 105 | – | –
Vero E6 [20], 100 nM | – | – | 102 | – | –
Vero E6 [20], 1000 nM | – | – | 107 | – | –
Vero E6 [20], 10000 nM | – | – | 89.8 | – | –
[1], 0.3 µM | – | 102 | – | – | –
[1], 3 µM | – | 102 | – | – | –
[1], 10 µM | – | 116 | – | – | –
[1], 30 µM | – | 95 | – | – | –
[8], 0.3 µM | – | – | – | -0.08 | –
[8], 3 µM | – | – | – | 0.43 | –
[8], 10 µM | – | – | – | 0.74 | –
[8], 30 µM | – | – | – | 0.22 | –
[9], 0.3 µM | 100 | – | – | – | –
[9], 3 µM | 83 | – | – | – | –
[9], 10 µM | 32 | – | – | – | –
[9], 30 µM | 25 | – | – | – | –

drug-induced phospholipidosis [%], A549-ACE2 [2]
Settings | 0.3 µM | 0.833333 µM | 3.33333 µM | 6.66667 µM | 10 µM | 30 µM
24 h | 1.51 | 2.03 | 17.2 | 46.9 | 89.3 | 113
48 h | 7.03 | 7.88 | 17.8 | 36.7 | 79.7 | 127
72 h | 6.97 | 7.75 | 18.7 | 39.7 | 90.5 | –

Settings | drug sensitivity score | relative viability EC50 [µM]
Caco-2 [6] | 0 | –
Caco-2 [13] | – | > 10
Calu-3 [5] | 0.1 | –
Calu-3 [12] | – | > 10
HepG2 [4] | 0 | –
HepG2 [11] | – | > 10
U2OS [3] | 0 | –
U2OS [10] | – | > 10
Vero E6 [7] | 0 | –
Vero E6 [14] | – | > 10

Cc1ccc(NC(=O)Nc2cc(C(F)(F)F)ccc2F)cc1Nc1ccc2c(c1)NC(=O)/C2=C\c1ccc[nH]1 [GNF-5837]
Settings | SARS-CoV-2 infection rate [%] | cell count [%] | cell viability [%] | morphology score | phospholipidosis EC50 [µM]
A549-ACE2 [15], 24 h | – | – | – | – | 2.17
A549-ACE2 [15], 48 h | – | – | – | – | 2.34
A549-ACE2 [15], 72 h | – | – | – | – | 2.6
Caco-2 [19], 1 nM | – | – | 105 | – | –
Caco-2 [19], 10 nM | – | – | 97.6 | – | –
Caco-2 [19], 100 nM | – | – | 103 | – | –
Caco-2 [19], 1000 nM | – | – | 94.5 | – | –
Caco-2 [19], 10000 nM | – | – | 75.7 | – | –
Calu-3 [18], 1 nM | – | – | 97.9 | – | –
Calu-3 [18], 10 nM | – | – | 96.4 | – | –
Calu-3 [18], 100 nM | – | – | 100 | – | –
Calu-3 [18], 1000 nM | – | – | 109 | – | –
Calu-3 [18], 10000 nM | – | – | 96.9 | – | –
HepG2 [17], 1 nM | – | – | 92.5 | – | –
HepG2 [17], 10 nM | – | – | 98.7 | – | –
HepG2 [17], 100 nM | – | – | 98.5 | – | –
HepG2 [17], 1000 nM | – | – | 103 | – | –
HepG2 [17], 10000 nM | – | – | 39 | – | –
U2OS [16], 1 nM | – | – | 99.6 | – | –
U2OS [16], 10 nM | – | – | 97.2 | – | –
U2OS [16], 100 nM | – | – | 97.2 | – | –
U2OS [16], 1000 nM | – | – | 98.2 | – | –
U2OS [16], 10000 nM | – | – | 85.5 | – | –
Vero E6 [20], 1 nM | – | – | 107 | – | –
Vero E6 [20], 10 nM | – | – | 107 | – | –
Vero E6 [20], 100 nM | – | – | 97 | – | –
Vero E6 [20], 1000 nM | – | – | 106 | – | –
Vero E6 [20], 10000 nM | – | – | 83.5 | – | –
[1], 0.3 µM | – | 100 | – | – | –
[1], 3 µM | – | 105 | – | – | –
[1], 10 µM | – | 115 | – | – | –
[1], 30 µM | – | 96 | – | – | –
[8], 0.3 µM | – | – | – | -0.15 | –
[8], 3 µM | – | – | – | 0.36 | –
[8], 10 µM | – | – | – | 0.82 | –
[8], 30 µM | – | – | – | 0.59 | –
[9], 0.3 µM | 103 | – | – | – | –
[9], 3 µM | 85 | – | – | – | –
[9], 10 µM | 22 | – | – | – | –
[9], 30 µM | 44 | – | – | – | –

drug-induced phospholipidosis [%], A549-ACE2 [2]
Settings | 0.3 µM | 0.833333 µM | 3.33333 µM | 6.66667 µM | 10 µM | 30 µM
24 h | 4.96 | 25.4 | 116 | 132 | 160 | 164
48 h | 4.94 | 9.4 | 80.5 | 95.6 | 96.1 | 120
72 h | 3.67 | 5.1 | 59.1 | 70.1 | 78.2 | 91.4

Settings | drug sensitivity score | relative viability EC50 [µM]
Caco-2 [6] | 1.7 | –
Caco-2 [13] | – | > 10
Calu-3 [5] | 0 | –
Calu-3 [12] | – | > 10
HepG2 [4] | 3 | –
HepG2 [11] | – | 3.46
U2OS [3] | 0.4 | –
U2OS [10] | – | > 10
Vero E6 [7] | 0.2 | –
Vero E6 [14] | – | > 10

Nc1ncccc1-c1nc2ccc(-c3ccccc3)nc2n1-c1ccc(C2(N)CCC2)cc1 [ARQ-092]
Settings | SARS-CoV-2 infection rate [%] | cell count [%] | cell viability [%] | morphology score | phospholipidosis EC50 [µM]
A549-ACE2 [15], 24 h | – | – | – | – | 3.22
A549-ACE2 [15], 48 h | – | – | – | – | 1.25
Caco-2 [19], 1 nM | – | – | 94.7 | – | –
Caco-2 [19], 10 nM | – | – | 97.9 | – | –
Caco-2 [19], 100 nM | – | – | 87.4 | – | –
Caco-2 [19], 1000 nM | – | – | 68 | – | –
Caco-2 [19], 10000 nM | – | – | 52.8 | – | –
Calu-3 [18], 1 nM | – | – | 98.3 | – | –
Calu-3 [18], 10 nM | – | – | 108 | – | –
Calu-3 [18], 100 nM | – | – | 95.7 | – | –
Calu-3 [18], 1000 nM | – | – | 76.3 | – | –
Calu-3 [18], 10000 nM | – | – | 8.8 | – | –
HepG2 [17], 1 nM | – | – | 102 | – | –
HepG2 [17], 10 nM | – | – | 95.2 | – | –
HepG2 [17], 100 nM | – | – | 90.4 | – | –
HepG2 [17], 1000 nM | – | – | 72.4 | – | –
HepG2 [17], 10000 nM | – | – | 51.4 | – | –
U2OS [16], 1 nM | – | – | 99.8 | – | –
U2OS [16], 10 nM | – | – | 99.4 | – | –
U2OS [16], 100 nM | – | – | 102 | – | –
U2OS [16], 1000 nM | – | – | 91.9 | – | –
U2OS [16], 10000 nM | – | – | 68.2 | – | –
Vero E6 [20], 1 nM | – | – | 95.1 | – | –
Vero E6 [20], 10 nM | – | – | 102 | – | –
Vero E6 [20], 100 nM | – | – | 86.5 | – | –
Vero E6 [20], 1000 nM | – | – | 82.2 | – | –
Vero E6 [20], 10000 nM | – | – | 84.7 | – | –
[1], 0.3 µM | – | 96 | – | – | –
[1], 3 µM | – | 98 | – | – | –
[1], 10 µM | – | 94 | – | – | –
[1], 30 µM | – | 46 | – | – | –
[8], 0.3 µM | – | – | – | -0.1 | –
[8], 3 µM | – | – | – | 0.72 | –
[8], 10 µM | – | – | – | 0.54 | –
[8], 30 µM | – | – | – | -0.21 | –
[9], 0.3 µM | 107 | – | – | – | –
[9], 3 µM | 51 | – | – | – | –
[9], 10 µM | 25 | – | – | – | –
[9], 30 µM | 78 | – | – | – | –

drug-induced phospholipidosis [%], A549-ACE2 [2]
Settings | 0.3 µM | 0.833333 µM | 3.33333 µM | 6.66667 µM | 10 µM | 30 µM
24 h | 1.77 | 12 | 89.4 | 198 | 175 | 50.3
48 h | 3.37 | 9.82 | 86.6 | – | 138 | 36.8
72 h | 2.32 | 7.77 | – | – | – | –

Settings | drug sensitivity score | relative viability EC50 [µM]
Caco-2 [6] | 7.1 | –
Calu-3 [5] | 8.7 | –
Calu-3 [12] | – | 1.52
HepG2 [4] | 6.1 | –
U2OS [3] | 2.7 | –
Vero E6 [7] | 3.3 | –
Vero E6 [14] | – | > 10
